Laboratory results: patent US10259810B2, “N-sulfonylated pyrazolo[3,4-b]pyridin-6-carboxamides and method of use” (AbbVie S.à.r.l., priority 2015, dated 2019)

Tests used:
Assay type in all cases: cell-based
ΔF508-CFTR [1] = molecular target: T1, ΔF508-CFTR (Homo sapiens, UniProt P13569, DEL508-508); test: CFTR cell surface levels using HRP-tagged ΔF508-CFTR expressing CFBE cells, in the presence of a co-corrector; conditions: HRP-tagged ΔF508-CFTR CFBE cells, in the presence of 3 μM co-corrector; for EC50: read-out: EC50
T1 construct: host or cells: CFBE41o-, doxycycline-inducible
T1 sequence (P13569 with tags, fused parts or gaps DEL508-508): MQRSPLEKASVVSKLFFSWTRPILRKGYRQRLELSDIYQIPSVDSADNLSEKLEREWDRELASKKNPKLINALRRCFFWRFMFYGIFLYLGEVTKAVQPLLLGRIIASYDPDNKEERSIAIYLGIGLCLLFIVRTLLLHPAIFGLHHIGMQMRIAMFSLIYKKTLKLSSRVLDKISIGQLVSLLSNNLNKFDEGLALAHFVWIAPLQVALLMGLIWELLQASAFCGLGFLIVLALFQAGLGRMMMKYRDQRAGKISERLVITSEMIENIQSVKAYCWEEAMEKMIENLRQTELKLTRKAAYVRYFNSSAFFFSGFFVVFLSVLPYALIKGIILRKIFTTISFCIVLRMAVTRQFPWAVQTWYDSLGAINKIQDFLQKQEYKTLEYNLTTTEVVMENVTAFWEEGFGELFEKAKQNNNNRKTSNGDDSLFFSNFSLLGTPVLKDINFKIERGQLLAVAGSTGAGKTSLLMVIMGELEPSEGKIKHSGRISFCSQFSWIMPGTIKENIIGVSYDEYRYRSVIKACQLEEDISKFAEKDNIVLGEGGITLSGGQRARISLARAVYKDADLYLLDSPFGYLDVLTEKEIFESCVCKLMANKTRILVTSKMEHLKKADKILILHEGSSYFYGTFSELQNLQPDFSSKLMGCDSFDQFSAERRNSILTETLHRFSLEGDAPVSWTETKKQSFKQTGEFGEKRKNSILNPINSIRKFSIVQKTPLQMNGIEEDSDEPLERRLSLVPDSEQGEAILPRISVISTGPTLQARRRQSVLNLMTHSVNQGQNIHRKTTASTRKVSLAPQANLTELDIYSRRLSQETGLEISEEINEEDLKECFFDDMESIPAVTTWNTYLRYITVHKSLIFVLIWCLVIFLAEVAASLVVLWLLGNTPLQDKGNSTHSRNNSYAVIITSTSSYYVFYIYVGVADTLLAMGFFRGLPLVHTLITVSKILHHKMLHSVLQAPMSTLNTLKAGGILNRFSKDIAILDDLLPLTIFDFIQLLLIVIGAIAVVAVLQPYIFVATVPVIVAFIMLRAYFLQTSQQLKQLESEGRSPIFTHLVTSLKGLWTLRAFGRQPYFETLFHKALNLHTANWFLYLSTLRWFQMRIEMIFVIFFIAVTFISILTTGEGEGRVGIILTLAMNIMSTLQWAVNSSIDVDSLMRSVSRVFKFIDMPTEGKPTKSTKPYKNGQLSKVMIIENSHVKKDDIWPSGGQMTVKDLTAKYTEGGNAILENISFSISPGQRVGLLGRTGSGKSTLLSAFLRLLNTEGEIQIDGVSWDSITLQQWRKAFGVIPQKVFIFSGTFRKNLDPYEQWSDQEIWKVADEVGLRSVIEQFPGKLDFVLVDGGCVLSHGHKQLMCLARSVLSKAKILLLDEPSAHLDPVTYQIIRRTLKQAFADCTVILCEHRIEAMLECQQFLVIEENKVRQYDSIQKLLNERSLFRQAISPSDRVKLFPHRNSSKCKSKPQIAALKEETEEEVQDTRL
Outline: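 Chemiluminescent read-out of surface HRP (15 min, dark) after PBS washes. Activity is normalized as 100×(sample−DMSO)/(3 μM co-corrector alone−DMSO).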

ΔF508-CFTR [2] = molecular target: T1, ΔF508-CFTR; test: CFTR cell surface levels using HRP-tagged ΔF508-CFTR expressing CFBE cells, intrinsic corrector capacity; parameters: % Activation: concentration or dose not given beside the values; conditions: HRP-tagged ΔF508-CFTR expressing CFBE41o- cells, compound alone (intrinsic corrector capacity), 20 hours at 33° C.; for EC50: read-out: EC50
Outline: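 Surface ΔF508-CFTR was measured as HRP chemiluminescence from an extracellular-loop-4 tag, expressed as percent activity between DMSO and a […] corrector control.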

CFTR ΔF508 = molecular target: T2, CFTR ΔF508 (Homo sapiens, UniProt P13569, DEL508-508); test: Chronic TECC assay, primary bronchial epithelial cells of CF patients homozygous for CFTR ΔF508 (corrector, co-corrector and potentiator); conditions: chronic TECC, Ieq = calculations based on the maximum current; for EC50: read-out: EC50 (nM) (Ieq*); for % Activity at 1 μM (Ieq*): test compound at 1 μM
T2 construct: bronchial epithelial cells isolated from CF patients homozygous for the CFTR ΔF508 mutation; McGill University; Asterand; University of North Carolina hAEC-CF; host or cells: primary human bronchial epithelial cells from CF patients homozygous for ΔF508, differentiated at air-liquid interface
T2 sequence (P13569 with tags, fused parts or gaps DEL508-508): as above
Method: Primary Bronchial Epithelial Cells Protocol
The TECC (Tranepithelial Clamp Circuit, EP-design) assay measures the functionality of the cystic fibrosis Transmembrane Conductance regulator (CFTR) by measuring the short circuit current (Isc) generated over the basolateral and apical membrane of lung epithelial cells. In TECC the transepithelial potential PD and transepithelial resistance (Rt) are measured in an open circuit and transformed to Ieq using Ohm's law. 24 Wells can be measured simultaneously allowing a higher throughput compared to Ussing chambers.
For this purpose, bronchial epithelial cells isolated from CF patients homozygous for the CFTR ΔF508 mutation (hAEC-CF, Epithelix, Geneva, Switzerland; McGill University, Montreal, Qc; Asterand, Detroit, Mich.; University of North Carolina, Chapel Hill, N.C.) are plated on type IV collagen-coated Transwell® supports (Costar).
For electrophysiological recording of the “chronic” experiments, the human airway epithelia are mounted in the TECC heating plate for electrophysiological measurement and kept at 37° C. The epithelia are bathed in a NaCl-Ringer solution (120 mM NaCl, 25 mM NaHCO3, 1.2 mM CaCl2, 1.2 mM MgCl2, 0.8 mM KH2PO4, 0.8 mM K2HPO4, pH 7.4, 5 mM glucose) on both the basolateral and apical sides. Test compounds (corrector, co-corrector, 4-[(2R,4R)-4-({[1-(2,2-difluoro-1,3-benzodioxol-5-yl)cyclopropyl]carbonyl}amino)-7-(difluoromethoxy)-3,4-dihydro-2H-chromen-2-yl]benzoic acid, and potentiator, N-(3-carbamoyl-5,5,7,7-tetramethyl-4,7-dihydro-5H-thieno[2,3-c]pyran-2-yl)-1H-pyrazole-5-carboxamide), are re-added to the recording solution prior to measurement. […] Apical amiloride is used to inhibit the endogenous ENaC currents while forskolin is applied on both apical and basolateral side to stimulate CFTR. Measurements are done during a 20 minute timeframe with recordings every 2 minutes. The increase in Ieq is used as a measure for the increased CFTR activity, EC50 values can be generated by measuring impact of different concentrations of compound on Ieq on primary cells, for this purpose each transwell is treated with a different compound concentration. […] Raw data were normalized to percentage activity values using the equation: 100×(Sample−Negative control)/(Positive control−Negative Control).

| SMILES | % Activation (ΔF508-CFTR [1]) [%] | EC50 (ΔF508-CFTR [1]) [nM] | % Activation (ΔF508-CFTR [2]) [%] | EC50 (ΔF508-CFTR [2]) [nM] | EC50 (CFTR ΔF508) [nM] | % Activity at 1 μM (Ieq*) (CFTR ΔF508) [%] |
| --- | --- | --- | --- | --- | --- | --- |
| CN(c1ccc(-c2cc(C(=O)NS(C)(=O)=O)nc3c2c(C2CCC2)nn3-c2ccccc2)cn1)C1CCOCC1 [Compound 74, 3-cyclobutyl-N-(methanesulfonyl)-4-{6-[methyl(oxan-4-yl)amino]pyridin-3-yl}-1-phenyl-1H-pyrazolo[3,4-b]pyridine-6-carboxamide] | 424.82 | 357 | 253.38 | 549 | < 30 | 240 |
| CC(C)c1nn(C2CCCCC2)c2nc(C(=O)NS(C)(=O)=O)cc(-c3ccc(N4CCC(C#N)CC4)cc3)c12 [Compound 80, 4-[4-(4-cyanopiperidin-1-yl)phenyl]-1-cyclohexyl-N-(methanesulfonyl)-3-(propan-2-yl)-1H-pyrazolo[3,4-b]pyridine-6-carboxamide] | 457.5 | 389 | 258.38 | 436 | 19.3 | 250 |
| CC(C)c1nn(-c2cccc(N3CCOCC3)c2)c2nc(C(=O)NS(C)(=O)=O)cc(-c3ccc(N4CCC(C#N)CC4)nc3)c12 [Compound 85, 4-[6-(4-cyanopiperidin-1-yl)pyridin-3-yl]-N-(methanesulfonyl)-1-[3-(morpholin-4-yl)phenyl]-3-(propan-2-yl)-1H-pyrazolo[3,4-b]pyridine-6-carboxamide] | 570.16 | 232 | 426.04 | 421 | > 1000 | 120 |
| COCCN(C)c1ccc(-c2cc(C(=O)NS(C)(=O)=O)nc3c2c(C(C)C)nn3-c2cccc(N3CCOCC3)c2)cn1 [Compound 86, N-(methanesulfonyl)-4-{6-[(2-methoxyethyl)(methyl)amino]pyridin-3-yl}-1-[3-(morpholin-4-yl)phenyl]-3-(propan-2-yl)-1H-pyrazolo[3,4-b]pyridine-6-carboxamide] | 489.56 | 255 | 329.92 | 637 | 30 | 210 |
| CC(C)c1nn(-c2cccc(N3CCOCC3)c2)c2nc(C(=O)NS(C)(=O)=O)cc(-c3ccc(N(C)C4CCOCC4)nc3)c12 [Compound 87, N-(methanesulfonyl)-4-{6-[methyl(oxan-4-yl)amino]pyridin-3-yl}-1-[3-(morpholin-4-yl)phenyl]-3-(propan-2-yl)-1H-pyrazolo[3,4-b]pyridine-6-carboxamide] | 623.62 | 456 | 422.84 | 409 | < 30 | 150 |
| CC(C)c1nn(-c2cccc(N(C)C)c2)c2nc(C(=O)NS(C)(=O)=O)cc(-c3cnc(N(C)C4CCOCC4)nc3)c12 [Compound 91, 1-[3-(dimethylamino)phenyl]-N-(methanesulfonyl)-4-{2-[methyl(oxan-4-yl)amino]pyrimidin-5-yl}-3-(propan-2-yl)-1H-pyrazolo[3,4-b]pyridine-6-carboxamide] | 619.45 | 891 | 388.15 | 382 | < 30 | 250 |
| CC1CN(c2ccc(-c3cc(C(=O)NS(C)(=O)=O)nc4c3c(C(C)C)nn4C3CCCCC3)cn2)CC(C)O1 (stereo not drawn) [Compound 93, 1-cyclohexyl-4-[6-(2,6-dimethylmorpholin-4-yl)pyridin-3-yl]-N-(methanesulfonyl)-3-(propan-2-yl)-1H-pyrazolo[3,4-b]pyridine-6-carboxamide] | 456.5 | 270 | 224.23 | 501 | < 30 | 220 |
| CC(C)c1nn(-c2cccc(N(C)C)c2)c2nc(C(=O)NS(C)(=O)=O)cc(-c3cnc(N4CCC(C#N)CC4)nc3)c12 [Compound 95, 4-[2-(4-cyanopiperidin-1-yl)pyrimidin-5-yl]-1-[3-(dimethylamino)phenyl]-N-(methanesulfonyl)-3-(propan-2-yl)-1H-pyrazolo[3,4-b]pyridine-6-carboxamide] | 611.7 | 649 | 355.6 | 838 | 10 | 180 |
| CC(C)c1nn(-c2cccc(N(C)C)c2)c2nc(C(=O)NS(C)(=O)=O)cc(-c3ccc(N(C)C4CCOCC4)cc3)c12 [Compound 96, 1-[3-(dimethylamino)phenyl]-N-(methanesulfonyl)-4-{4-[methyl(oxan-4-yl)amino]phenyl}-3-(propan-2-yl)-1H-pyrazolo[3,4-b]pyridine-6-carboxamide] | 707.5 | 473 | 406.6 | 367 | < 30 | 310 |
| CC(C)c1nn(-c2cccc(N3CCCC3)c2)c2nc(C(=O)NS(C)(=O)=O)cc(-c3ccc(N(C)C4CCOCC4)cc3)c12 [Compound 110, N-(methanesulfonyl)-4-{4-[methyl(oxan-4-yl)amino]phenyl}-3-(propan-2-yl)-1-[3-(pyrrolidin-1-yl)phenyl]-1H-pyrazolo[3,4-b]pyridine-6-carboxamide] | 665.7 | 336 | 451.8 | 358 | < 30 | 170 |
| CCS(=O)(=O)NC(=O)c1cc(-c2ccc(N3CCOCC3)cc2)c2c(C)nn(-c3ccc(F)cc3F)c2n1 [Compound 113, 1-(2,4-difluorophenyl)-N-(ethanesulfonyl)-3-methyl-4-[4-(morpholin-4-yl)phenyl]-1H-pyrazolo[3,4-b]pyridine-6-carboxamide] | 455.63 | 235 | 262.33 | 464 | 32 | 310 |
| COC1CCN(c2cc(C(=O)NS(C)(=O)=O)nc3c2c(C(C)C)nn3-c2cccc(C)c2)CC1 [Compound 117, N-(methanesulfonyl)-4-(4-methoxypiperidin-1-yl)-1-(3-methylphenyl)-3-(propan-2-yl)-1H-pyrazolo[3,4-b]pyridine-6-carboxamide] | 417.92 | 200 | 281.88 | 333 | > 1000 | 81 |
| CC(C)c1nn(C2CCCCC2)c2nc(C(=O)NS(C)(=O)=O)cc(-c3cnc(N4CCC(C#N)CC4)nc3)c12 [Compound 119, 4-[2-(4-cyanopiperidin-1-yl)pyrimidin-5-yl]-1-cyclohexyl-N-(methanesulfonyl)-3-(propan-2-yl)-1H-pyrazolo[3,4-b]pyridine-6-carboxamide] | 389.93 | 331 | 188.53 | 520 | > 1000 | 157 |
| COCCN(CCOC)c1ccc(-c2cc(C(=O)NS(C)(=O)=O)nc3c2c(C(C)C)nn3C2CCCCC2)cn1 [Compound 121, 4-{6-[bis(2-methoxyethyl)amino]pyridin-3-yl}-1-cyclohexyl-N-(methanesulfonyl)-3-(propan-2-yl)-1H-pyrazolo[3,4-b]pyridine-6-carboxamide] | 368.6 | 282 | 159.13 | 653 | 74 | 206 |
